Test results published in patent US11252963B2, “Pesticidally active pyrazole derivatives” (SYNGENTA PARTICIPATIONS AG, priority 2017, dated 2022).
Read-outs that look alike come from different tables or passages of the source.

Experiments:
Format in all cases: in vivo
[1] = test system: Thrips tabaci (Onion Thrips); experiment: Thrips tabaci (Onion Thrips): feeding/contact activity; conditions: foliar, 144 h
Description: Thrips tabaci (Onion Thrips): Feeding/Contact Activity
(§1) Sunflower leaf discs were placed on agar in 24-well microtiter plates and sprayed with aqueous test solutions prepared from 10′000 ppm DMSO stock solutions. After drying the leaf discs were infested with a thrips population of mixed ages. The samples were assessed for mortality 6 days after infestation.

[2] = test system: Myzus persicae (Green Peach Aphid); experiment: Myzus persicae (Green Peach Aphid): feeding/contact activity; conditions: foliar, 144 h
Description: Myzus persicae (Green Peach Aphid): Feeding/Contact Activity
Sunflower leaf discs were placed onto agar in a 24-well microtiter plate and sprayed with aqueous test solutions prepared from 10,000 ppm DMSO stock solutions. After drying, the leaf discs were infested with an aphid population of mixed ages. The samples were assessed for mortality 6 days after infestation.

[3] = test system: Diabrotica balteata (Corn root worm); experiment: Diabrotica balteata (Corn root worm) mortality test on sprayed maize sprouts; conditions: 96 h
Description: Diabrotica balteata (Corn root worm):
Maize sprouts placed onto an agar layer in 24-well microtiter plates were treated with aqueous test solutions prepared from 10′000 ppm DMSO stock solutions by spraying. After drying, the plates were infested with L2 larvae (6 to 10 per well). The samples were assessed for mortality 4 days after infestation.

[4] = test system: Euschistus heros (Neotropical Brown Stink Bug); experiment: Euschistus heros (Neotropical Brown Stink Bug): feeding/contact activity; conditions: 120 h
Description: Euschistus heros (Neotropical Brown Stink Bug): Feeding/Contact Activity
Soybean leaves on agar in 24-well microtiter plates were sprayed with aqueous test solutions prepared from 10,000 ppm DMSO stock solutions. After drying the leaves were infested with N2 nymphs. The samples were assessed for mortality 5 days after infestation.

[5] = test system: Spodoptera littoralis (Egyptian Cotton Leaf Worm); experiment: Spodoptera littoralis (Egyptian Cotton Leaf Worm): feeding/contact activity; conditions: foliar, 72 h
Description: Spodoptera littoralis (Egyptian Cotton Leaf Worm): Feeding/Contact Activity
Cotton leaf discs were placed onto agar in 24-well microtiter plates and sprayed with aqueous test solutions prepared from 10′000 ppm DMSO stock solutions. After drying the leaf discs were infested with five L1 larvae. The samples were assessed for mortality 3 days after infestation.

[6] = test system: Plutella xylostella (Diamond Back Moth); experiment: Plutella xylostella (Diamond Back Moth): feeding/contact activity; conditions: 120 h
Description: Plutella xylostella (Diamond Back Moth): Feeding/Contact Activity
24-well microtiter plates with artificial diet were treated with aqueous test solutions prepared from 10′000 ppm DMSO stock solutions by pipetting. After drying, the plates were infested with L2 larvae (10 to 15 per well). The samples were assessed for mortality 5 days after infestation.

[7] = test system: Tetranychus urticae (Two-Spotted Spider Mite); experiment: Tetranychus urticae (Two-Spotted Spider Mite): feeding/contact activity; conditions: foliar, 192 h, read-out: mortality on mixed population (mobile stages)
Description: Tetranychus urticae (Two-Spotted Spider Mite): Feeding/Contact Activity
as §1, with “Bean” for “Sunflower”, “discs” for “discs were placed”, “were” for “and”, “mite” for “thrips”, “on mixed population (mobile stages) 8” for “6”

[8] = application rate 200 ppm, sunflower leaf discs sprayed, thrips population of mixed ages, assessed 6 days after infestation, read-out: mortality
[9] = application rate 200 ppm, sunflower leaf discs sprayed, aphid population of mixed ages, assessed 6 days after infestation, read-out: mortality
[10] = application rate 200 ppm, maize sprouts sprayed, L2 larvae, assessed 4 days after infestation, read-out: mortality
[11] = application rate 200 ppm, soybean leaves sprayed, N2 nymphs, assessed 5 days after infestation, read-out: mortality
[12] = application rate 200 ppm, cotton leaf discs sprayed, L1 larvae, assessed 3 days after infestation, read-out: mortality
[13] = application rate 200 ppm, artificial diet treated by pipetting, L2 larvae, assessed 5 days after infestation, read-out: mortality
[14] = application rate 200 ppm, bean leaf discs sprayed, mite population of mixed ages, assessed 8 days after infestation

Measured: mortality at 200 ppm

CCOC(=O)N(C(=O)c1cc(-c2cnn(-c3c(OC(F)F)c(C(F)(F)C(F)(F)F)nn3C)c2)cnc1Cl)C1(C#N)CC1 [Compound 16, ethyl N-[2-chloro-5-[1-[4-(difluoromethoxy)-2-methyl-5-(1,1,2,2,2-pentafluoroethyl)pyrazol-3-yl]pyrazol-4-yl]pyridine-3-carbonyl]-N-(1-cyanocyclopropyl)carbamate]
≥ 80%: [1] | [2] | [3] | [4]; in Glycine max | [5] | [6] | [7]

COC(=O)N(C(=O)c1cc(-c2cnn(-c3c(OC(F)F)c(C(F)(F)C(F)(F)F)nn3C)c2)cnc1Cl)C1(C#N)CC1 [Compound 17, methyl N-[2-chloro-5-[1-[4-(difluoromethoxy)-2-methyl-5-(1,1,2,2,2-pentafluoroethyl)pyrazol-3-yl]pyrazol-4-yl]pyridine-3-carbonyl]-N-(1-cyanocyclopropyl)carbamate]
≥ 80%: [1] | [2] | [3] | [4]; in Glycine max | [5] | [6] | [7]

COCN(C(=O)c1cc(-c2cnn(-c3c(OC(F)F)c(C(F)(F)C(F)(F)F)nn3C)c2)cnc1Cl)C1(C#N)CC1 [Compound 18, 2-chloro-N-(1-cyanocyclopropyl)-5-[1-[4-(difluoromethoxy)-2-methyl-5-(1,1,2,2,2-pentafluoroethyl)pyrazol-3-yl]pyrazol-4-yl]-N-(methoxymethyl)pyridine-3-carboxamide]
≥ 80%: [1]; [8] | [2]; [9] | [3]; [10] | [4]; [11] | [5]; [12] | [6]; [13] | [7]; [14]

Cn1nc(C(F)(F)C(F)(F)F)c(OC(F)F)c1-n1cc(-c2cnc(Cl)c(C(=O)N(C(=O)C3CC3)C3(C#N)CC3)c2)cn1 [Compound 19, 2-chloro-N-(1-cyanocyclopropyl)-N-(cyclopropanecarbonyl)-5-[1-[4-(difluoromethoxy)-2-methyl-5-(1,1,2,2,2-pentafluoroethyl)pyrazol-3-yl]pyrazol-4-yl]pyridine-3-carboxamide]
≥ 80%: [1]; [8] | [2]; [9] | [3]; [10] | [4]; [11] | [5]; [12] | [6]; [13] | [7]; [14]

CCC(=O)N(C(=O)c1cc(-c2cnn(-c3c(OC(F)F)c(C(F)(F)C(F)(F)F)nn3C)c2)cnc1Cl)C1(C#N)CC1 [Compound 20, 2-chloro-N-(1-cyanocyclopropyl)-5-[1-[4-(difluoromethoxy)-2-methyl-5-(1,1,2,2,2-pentafluoroethyl)pyrazol-3-yl]pyrazol-4-yl]-N-propanoyl-pyridine-3-carboxamide]
≥ 80%: [1]; [8] | [2]; [9] | [3]; [10] | [4]; [11] | [5]; [12] | [6]; [13] | [7]; [14]

C#CCN(C(=O)c1cc(-c2cnn(-c3c(OC(F)F)c(C(F)(F)C(F)(F)F)nn3C)c2)cnc1Cl)C1(C#N)CC1 [Compound 21, 2-chloro-N-(1-cyanocyclopropyl)-5-[1-[4-(difluoromethoxy)-2-methyl-5-(1,1,2,2,2-pentafluoroethyl)pyrazol-3-yl]pyrazol-4-yl]-N-prop-2-ynyl-pyridine-3-carboxamide]
≥ 80%: [1]; [8] | [2]; [9] | [3]; [10] | [4]; [11] | [5]; [12] | [6]; [13] | [7]; [14]

CC(=O)N(C(=O)c1cc(-c2cnn(-c3c(OC(F)F)c(C(F)(F)C(F)(F)F)nn3C)c2)cnc1Cl)C1(C#N)CC1 [Compound 22, N-acetyl-2-chloro-N-(1-cyanocyclopropyl)-5-[1-[4-(difluoromethoxy)-2-methyl-5-(1,1,2,2,2-pentafluoroethyl)pyrazol-3-yl]pyrazol-4-yl]pyridine-3-carboxamide]
≥ 80%: [1]; [8] | [2]; [9] | [3]; [10] | [4]; [11] | [5]; [12] | [6]; [13] | [7]; [14]
